We go through one molecule from patent US20210196672A1, “COMPOSITIONS COMPRISING 3'-O-METHYL-5-O-SULFATE EPICATECHIN AND THERAPEUTIC USES OF SUCH COMPOSITIONS” (NESTEC S.A., priority 2016, published 2021).

This experiment relates to endothelial nitric oxide synthase. Description: eNOS phosphorylation level in isolated aortic rat rings (western blot). The class given is cell-based. Particulars: isolated thoracic aortic rings of male adult Wistar rats, 1 h incubation, relative to the control (DMSO 1%) and chemically similar epicatechins, FIG. 2. As for the experimental part:
Comparative experiments were conducted on the expression of endothelial nitric oxide synthase in isolated aortic rat rings.
Thoracic aortas were obtained from male adults Wistar rats after euthanasia. Each aorta was carefully dissected and harvested cleaned of excess tissue and cut into three equal segments, approximately 7 mm long. All aortic rings were pre-incubated for 30 min in Krebs solution (20 mM Hepes buffer, pH 7.4, containing 119 mM NaCl, 4.7 mM KCl, 1 mM MgSO4, 0.4 mM NaH2PO4, 0.15 mM Na2HPO4, 5 mM NaHCO3, 1.25 mM CaCl2, 5.5 mM glucose) aerated with 95% 02 and 5% CO2 at 37° C. and then incubated with vehicle (DMSO 1%) or the different metabolites for 1 h. Metabolites were first dissolved in DMSO 1% and tested in a final concentration […]. At the end of the incubation period aortic rings were frozen at −70° C. until the homogenate preparation. Homogenates for western blot and western blot determinations were carried out by the regular procedures and phosphorylation level of endothelial nitric oxide synthase was evaluated.
(In western blotting, separated proteins are transferred to a membrane and probed.)

As for `COc1cc([C@H]2Oc3cc(O)cc(OS(=O)(=O)O)c3C[C@H]2O)ccc1O` [3′-O-methyl-5-O-sulfate epicatechin], the eNOS phosphorylation result is “increased eNOS phosphorylation relative to the control and chemically similar epicatechins”.
